Several values for one entry are separate records, joined by “and”; a condition that tells them apart may be missing. Equal entries are not always repeated. Inconclusive results are not listed.

This test deals with nude mice, A549 intrarenal xenograft, tumor weight change. In words: NCI In Vivo Anticancer Drug Screen. Data for tumor model A549 Human Adenocarcinoma of Lung with characteristics of Type II Alveolar Epithelial cells (intrarenal inoculation) in NU/NU BALB/C (nude) mice. The settings on record: endpoint: mean tumor weight change, schedule: Q04DX003 (ip), higher = larger tumour. The procedure, abridged: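 Activity is expressed as T/C: the treated-group value over the vehicle-treated control value. The measure was survival or tumor size in mice carrying transplantable tumors.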

Where [1] appears, read: dose: 150.0 mg/kg/injection, vehicle: saline with Tween-80.
Setting [2] is: dose: 300.0 mg/kg/injection, vehicle: saline with Tween-80.
Setting [3] is: dose: 150.0 mg/kg/injection, vehicle: other.
Setting [4] is: dose: 300.0 mg/kg/injection, vehicle: other.
Where [5] appears, read: dose: 600.0 mg/kg/injection, vehicle: other.
The mark [6] stands for this setting: dose: 75.0 mg/kg/injection, vehicle: DMSO.
Setting [7] is: dose: 300.0 mg/kg/injection, vehicle: DMSO.
Where [8] appears, read: dose: 300.0 mg/kg/injection, vehicle: Klucel (hydroxypropylcellulose) (HPC).
Setting [9] is: dose: 600.0 mg/kg/injection, vehicle: Klucel (hydroxypropylcellulose) (HPC).
Where [10] appears, read: dose: 12.5 mg/kg/injection, vehicle: saline with Tween-80.
Where [11] appears, read: dose: 25.0 mg/kg/injection, vehicle: saline with Tween-80.
[12] abbreviates: dose: 75.0 mg/kg/injection, vehicle: Klucel (hydroxypropylcellulose) (HPC).
[13] abbreviates: dose: 150.0 mg/kg/injection, vehicle: Klucel (hydroxypropylcellulose) (HPC).
The mark [14] stands for this setting: dose: 600.0 mg/kg/injection, vehicle: saline with Tween-80.
The mark [15] stands for this setting: dose: 1200.0 mg/kg/injection, vehicle: saline with Tween-80.

As to `CC1C(c2ccccc2)OC(N2CCOCC2)C(C)(C)CN1C` (stereo not drawn), the T/C was 112 % of control under setting [1] and 72 % of control under setting [2].
As to `Cc1ccccc1N=C(c1ccccc1)C1C(=O)c2ccccc2C1=O`, the T/C by setting is: under setting [3], 101 % of control; under setting [4], 75 % of control; under setting [5], 104 % of control; (dose: 1200.0 mg/kg/injection, vehicle: other) 121 % of control.
As for `CCCCNc1ccc2nnc(C)n2n1`, the T/C by setting is: under setting [6], 75 % of control; (dose: 150.0 mg/kg/injection, vehicle: DMSO) 19 % of control; under setting [7], 65 % of control.
On to `NC(=S)N/N=C/c1cc(=O)c2cc(Cl)ccc2o1`, for which the T/C under setting [6] is 66 % of control; the T/C under setting [3] was 15 % of control; the T/C under setting [7] is 152 % of control; the T/C under setting [4] was 29 % of control; the T/C (dose: 600.0 mg/kg/injection, vehicle: DMSO) is 150 % of control; the T/C under setting [5] is 36 % of control.
As for `O=C1C(=O)c2cccnc2-c2ncccc21`, the T/C reads like this: (dose: 1.25 mg/kg/injection, vehicle: Klucel (hydroxypropylcellulose) (HPC)) 59 % of control; (dose: 2.5 mg/kg/injection, vehicle: Klucel (hydroxypropylcellulose) (HPC)) 55 % of control; (dose: 10.0 mg/kg/injection, vehicle: Klucel (hydroxypropylcellulose) (HPC)) 6 % of control.
Regarding `CN=C(NC)c1ccc(NC(=O)/C=C\c2ccc(/C=C/C(=O)Nc3ccc(C(=NC)NC)cc3)cc2)cc1`, the T/C (dose: 3.13 mg/kg/injection, vehicle: Klucel (hydroxypropylcellulose) (HPC)) was 47 % of control; the T/C (dose: 6.25 mg/kg/injection, vehicle: Klucel (hydroxypropylcellulose) (HPC)) was 67 % of control; the T/C (dose: 12.5 mg/kg/injection, vehicle: Klucel (hydroxypropylcellulose) (HPC)) was 47 % of control.
On to `Cc1cc(NC(=S)SCc2ccc3c(c2)OCO3)ccc1Cl`, for which the T/C reads like this: under setting [8], 61 % of control; under setting [9], 73 % of control.
Take `CN=C(N)N/N=C(\C)c1ccc2sc3ccc(/C(C)=N/NC(N)=NC)cc3c2c1`: the T/C by setting is: (dose: 75.0 mg/kg/injection, vehicle: saline with Tween-80) 118 % of control; under setting [1], 95 % of control; under setting [2], 83 % of control.
Consider `Cc1ccc(C(=O)Nc2ccc(S(=O)(=O)O)c3cc(S(=O)(=O)O)cc(S(=O)(=O)O)c23)cc1NC(=O)c1cccc(NC(=O)Nc2cccc(C(=O)Nc3cc(C(=O)Nc4ccc(S(=O)(=O)O)c5cc(S(=O)(=O)O)cc(S(=O)(=O)O)c45)ccc3C)c2)c1`, for which the T/C (dose: 25.0 mg/kg/injection, vehicle: saline) is 99 % of control; the T/C (dose: 50.0 mg/kg/injection, vehicle: saline) was 100 % of control; the T/C (dose: 100.0 mg/kg/injection, vehicle: saline) was 112 % of control.
`C/C(=N\NC(=S)N1CC2CCC(CC2)C1)c1cccc(C)n1`: the T/C runs as follows: under setting [10], 114 % of control; under setting [11], 81 % of control.
Take `CC1Oc2cc3c(-c4c(O)cc(O)c5c(O)c6c(cc45)OC(C)C(C)C6=O)c(O)cc(O)c3c(O)c2C(=O)C1C` (stereo not drawn): the T/C reads like this: (dose: 0.19 mg/kg/injection, vehicle: suspension in saline) 60 % of control; (dose: 0.38 mg/kg/injection, vehicle: suspension in saline) 51 % of control; (dose: 0.75 mg/kg/injection, vehicle: suspension in saline) 83 % of control; (dose: 3.0 mg/kg/injection, vehicle: suspension in saline) 63 % of control; (dose: 6.0 mg/kg/injection, vehicle: suspension in saline) 77 % of control.
Take `Cc1ccc2c(c1)n([O-])c1cc(Cl)ccc1[n+]2=O`: the T/C was 102 % of control (dose: 35.0 mg/kg/injection, vehicle: saline with Tween-80); 65 % of control (dose: 70.0 mg/kg/injection, vehicle: saline with Tween-80); 108 % of control (dose: 140.0 mg/kg/injection, vehicle: saline with Tween-80); 94 % of control (dose: 280.0 mg/kg/injection, vehicle: saline with Tween-80).
Take `CC1(O)C=CC(=O)C=C1`: the T/C is 121 % of control (dose: 25.0 mg/kg/injection, vehicle: water) and 100 % of control (dose: 50.0 mg/kg/injection, vehicle: water).
In the case of `CCCCCCCCCCCCCCCCCCOCC(CO)OC` (stereo not drawn), the T/C is 47 % of control and 53 % of control under setting [1]; 56 % of control and 73 % of control under setting [2].
With `CCCCCNc1ncnc2c(C)[nH]nc12`, the T/C runs as follows: (dose: 37.5 mg/kg/injection, vehicle: Klucel (hydroxypropylcellulose) (HPC)) 82 % of control; under setting [12], 105 % of control; under setting [13], 100 % of control.
Take `S=c1sc2ccccc2n1CN1CCOCC1`: the T/C was 81 % of control under setting [1], 172 % of control under setting [2] and 57 % of control under setting [14].
In the case of `CCOC(=O)/C=C/C(=O)N1CCN(C(=O)/C=C/C(=O)OCC)C(C)C1` (stereo not drawn), the T/C by setting is: under setting [13], 50 % of control; under setting [8], 71 % of control; under setting [9], 49 % of control.
As to `Cc1cc(Br)c2nsnc2c1[N+](=O)[O-]`, the T/C is 7 % of control and 26 % of control under setting [1]; 38 % of control under setting [15].
As to `CC[C@@]1(O)C(=O)OCc2c1cc1n(c2=O)Cc2cc3ccccc3nc2-1`, the T/C reads like this: (dose: 2.0 mg/kg/injection, vehicle: saline with Tween-80) 31 % of control; (dose: 4.0 mg/kg/injection, vehicle: saline with Tween-80) 29 % of control; (dose: 6.0 mg/kg/injection, vehicle: saline with Tween-80) -21 % of control; (dose: 8.0 mg/kg/injection, vehicle: saline with Tween-80) 17 % of control; (dose: 10.0 mg/kg/injection, vehicle: saline with Tween-80) -80 % of control; (dose: 16.0 mg/kg/injection, vehicle: saline with Tween-80) 12 % of control.
As for `NC(=O)c1cc(Cl)nc2nc(Cl)nc(N)c12`, the T/C under setting [1] was 111 % of control, the T/C under setting [2] is 89 % of control, the T/C under setting [14] is 55 % of control and the T/C under setting [15] is 93 % of control.
As for `C[n+]1c(-c2ccc(NC(=O)c3ccc(C(=O)Nc4ccc(-c5cn6ccccc6[n+]5C)cc4)cc3)cc2)cn2ccccc21`, the T/C is, setting by setting: under setting [10], 47 % of control; under setting [11], 49 % of control.
Turning to `O=S(=O)(O)c1cc(N=C=S)ccc1/C=C/c1ccc(N=C=S)cc1S(=O)(=O)O`, the T/C runs as follows: (dose: 3.75 mg/kg/injection, vehicle: saline) 107 % of control; (dose: 7.5 mg/kg/injection, vehicle: saline) 64 % of control; (dose: 30.0 mg/kg/injection, vehicle: saline) 118 % of control.
For `C=CCOc1cc2c(cc1C(C)c1ccc(OC)cc1)OCO2` (stereo not drawn), the T/C runs as follows: under setting [12], 58 % of control; under setting [13], 94 % of control and 77 % of control.
Consider `C=CCSC(C)=O`, for which the T/C is, setting by setting: (dose: 62.5 mg/kg/injection, vehicle: suspension in saline) 83 % of control; (dose: 125.0 mg/kg/injection, vehicle: suspension in saline) 53 % of control; (dose: 250.0 mg/kg/injection, vehicle: suspension in saline) 90 % of control; (dose: 500.0 mg/kg/injection, vehicle: suspension in saline) 71 % of control.
With `O=C1CNC(=O)N1CN1CCOCC1`, the T/C under setting [13] was 198 % of control and the T/C under setting [8] is 69 % of control.
